Measured values: patent US20040009233A1, “Shark meat extract” (priority 2000, published 2004)

Test system: Angiogenesis
Assay: Inhibition of angiogenesis by fatty acid samples
Assay type: cell-based
Description: The phospholipid fatty acids usually include docosahexaenoic acid (DHA), arachidonic acid (AA), eicosapentaenoic acid (EPA), and others.

CC/C=C\C/C=C\C/C=C\C/C=C\C/C=C\CCCCCC(=O)O [Docosapentaenoic]
Inhibition of Angiogenesis (sample concentration 4 μg/ml): 71%

CC/C=C\C/C=C\C/C=C\C/C=C\C/C=C\C/C=C\CCC(=O)O [Docosahexaenoic (DHA), docosahexaenoic acid]
inhibition at 5 µg/mL (sample concentration 5 μg/ml): 88%

CCCCCCCC/C=C\CCCCCCCCCCCCCC(=O)O [Nervonic]
Inhibition of Angiogenesis (sample concentration 100 μg/ml): 0%

CC/C=C\C/C=C\C/C=C\CCCCCCCC(=O)O [α-Linolenic]
Inhibition of Angiogenesis (sample concentration 20 μg/ml): 66%

CCCCCCCC/C=C\CCCCCCCC(=O)O [Oleic, oleic acid]
inhibition at 100 µg/mL (read-out: Inhibition of Angiogenesis): 0%

CCCC/C=C\CCCCCCCC(=O)O [Myristoleic]
Inhibition of Angiogenesis (sample concentration 10 μg/ml): 58%

CC/C=C\C/C=C\C/C=C\C/C=C\C/C=C\CCCC(=O)O [Eicosapentaenoic (EPA), eicosapentaenoic acid]
inhibition at 3 µg/mL (sample concentration 3 μg/ml): 100%

CCCCCCCCCCC/C=C\CCCCC(=O)O [Petroselenic]
Inhibition of Angiogenesis (sample concentration 100 μg/ml): 58%

CCCCC/C=C\C/C=C\CCCCCCCC(=O)O [Linoleic]
Inhibition of Angiogenesis (sample concentration 5 μg/ml): 82%

CCCCCCC=CCCCCCCCCC(=O)O [Heptadecenoic]
Inhibition of Angiogenesis (sample concentration 20 μg/ml): 83%

CCCCC/C=C\C/C=C\C/C=C\C/C=C\CCCC(=O)O [Arachidonic, arachidonic acid]
inhibition at 5 µg/mL (sample concentration 5 μg/ml): 84%

CCCCCCCC/C=C\CCCCCCCCCCCC(=O)O [Erucic]
Inhibition of Angiogenesis (sample concentration 200 μg/ml): 30%

CCCCCC/C=C\CCCCCCCC(=O)O [Palmitoleic]
Inhibition of Angiogenesis (sample concentration 5 μg/ml): 70%
